Measurements as given in publication PMC9044946 (Journal of Virology, 2022).
Structures can show the parent of a compound that is named as a salt.

Columns and labels:
[1] = system: S-mediated cell-to-cell fusion; assay type: cell-based; details: acceptor cells ACE2 plus TMPRSS2, camostat 120 μM
[2] = system: TMPRSS2-induced production of S2′; assay type: cell-based; details: acceptor cells ACE2 and TMPRSS2, 120 μM
[3] = orally administered three times a day; cited from earlier work

SMILES	Effect on TMPRSS2-enhanced fusion with μAS1/S2 [1]	Effect on TMPRSS2-reduced fusion with WT S [1]	Effect on enhanced TMPRSS2-induced production of S2′ with WT S [2]	Effect on COVID-19 symptoms [3]
CN(C)C(=O)COC(=O)Cc1ccc(OC(=O)c2ccc(NC(=N)N)cc2)cc1 [camostat]	largely attenuated	completely restored	eliminated	–
CN(C)C(=O)COC(=O)Cc1ccc(OC(=O)c2ccc(NC(=N)N)cc2)cc1 [camostat mesylate]	–	–	–	did not ameliorate COVID-19 symptoms
